From patent US10420737B2, “Hepatotoxicity-free pharmaceutical composition containing acetaminophen drugs” (NATIONAL DEFENSE EDUCATION AND RESEARCH FOUNDATION, priority 2013, dated 2019)
“And” between values parts separate entries of the source, which are not always exact repeats. Equal entries are not always repeated. “Also recorded” adds a separate entry of the source. One block for each compound: values may come before it.

Tests used:
[1] = tested on: Male SD (Sprague-Dawley) rats; experiment: APAP-induced hepatotoxicity in rats: plasma AST and ALT activity; format: in vivo, rat; details: for improvement of APAP liver damage (AST, ALT, GSP and Total HAI-score, in words): combined with APAP 1000 mg/kg, versus APAP hepatotoxicity group
Description: After completion of the treatments, rats were sacrificed under ether anesthesia, and blood was collected from the tail artery of the rats and placed in a test tube containing EDTA. The plasma was centrifuged at 13,000 at 4° C. for 15 minutes and the isolated plasma was transferred to Eppendorf tubes in aliquots and stored at −80° C.
Liver damage is quantified by measuring plasma AST and ALT activity. AST and ALT are common indicators of hepatotoxicity and are measured by using the Synchron LXi 725 system (Beckman Instruments, U.S.).

[2] = tested on: Male SD (Sprague-Dawley) rats; experiment: APAP-induced hepatotoxicity in rats: histological liver tissue sections (Total HAI-score); details: for liver tissue sections, hepatocyte morphology (in words): liver protection groups + APAP 1000 mg/kg, H&E stain 200×, FIG. 2
[3] = biological target: Cytochrome P450 2E1 (CYP2E1) (Rattus norvegicus, UniProt P05182); experiment: In-vitro screening of CYP2E1 inhibitors in rat liver microsomes (chlorzoxazone 6-hydroxylation)
Excerpt: (§1) This example is preparation of microsomes from rat and human liver for in vitro screening of CYP2E1 inhibitors. A total of 55 safe and edible excipients are included in the screening for cytochrome P450 2E1 (CYP2E1) inhibitors. […] After addition of the test sample, the amount of CYP2E1 metabolite standard 6-OH—CZX (6-Hydroxy-Chlorzoxazone) is used for calculation of the CYP 2E1 inhibition ratio of the test sample by using the amount of 6-OH—CZX of the control group as the baseline.
(§2) Transfer to and pre-incubate the reaction mixture in a water bath at 37° C. for 1 minute. […] Incubate the sample for 1 minute and add internal standard (5 ug/mL 4-hydroxy-tobutamide).

[4] = biological target: Cytochrome P450 2E1 (CYP2E1) (Homo sapiens, UniProt P05181); experiment: In-vitro screening of CYP2E1 inhibitors in human liver microsomes (chlorzoxazone 6-hydroxylation)
Excerpt: as §1, §2

[5] = tested on: Male SD (Sprague-Dawley) rats; experiment: APAP-induced hepatotoxicity in rats: galactose single point (GSP) residual liver function test; format: in vivo, rat; details: excipient 1.67 mg/kg + APAP 1000 mg/kg, single oral dose
Description: After the study was completed, all rats were subjected to GSP test. Rats were i.v. injected with 0.4 g/ml BW galactose solution 0.5 g/kg within 30 seconds and one blood sample was collected at 5, 10, 15, 30, 45 and 60 minutes post injection from the tail vein. Colorimetric galactose dehydrogenase is used to quantify the concentration of galactose and the test concentration ranges from 50 to 1,000 μg/ml. The within-day variation of each concentration is calculated using standard deviation and coefficient of variation (CV) and the maximum allowable coefficient of variation is 10% CV, whereas day-to-day variation is examined by comparing the slope and intercept of calibration curves. The GSP is the blood galactose concentration obtained 60 seconds after stopping the 30-second injection.

[6] = APAP alone, single oral dose 1000 mg/kg, plasma, mean ± SD, 1000 mg/kg
[7] = rat liver microsomes, test concentration 16.5 μM
[8] = rat liver microsomes, test concentration 33 μM
[9] = rat liver microsomes, test concentration 66 μM
[10] = rat, microsomes, 30 min, 0.024 %, pH 7.4
[11] = rat, microsomes, 30 min, 0.084 % (w/v), pH 7.4
[12] = rat, microsomes, 30 min, 0.167 % (w/v), pH 7.4
[13] = human liver microsomes, test concentration 16.5 μM
[14] = human liver microsomes, test concentration 33 μM
[15] = human liver microsomes, test concentration 66 μM
[16] = excipient 1.67 mg/kg + APAP 1000 mg/kg, single oral dose
[17] = rat, microsomes, 30 min, 16.5 μM, pH 7.4
[18] = rat, microsomes, 30 min, 33 μM, pH 7.4
[19] = rat, microsomes, 30 min, 66 μM, pH 7.4
[20] = human, microsomes, 30 min, 16.5 μM, pH 7.4
[21] = human, microsomes, 30 min, 33 μM, pH 7.4
[22] = human, microsomes, 30 min, 66 μM, pH 7.4

Sequence of Cytochrome P450 2E1 (CYP2E1) (Homo sapiens, UniProt P05181) (P05181 whole entry): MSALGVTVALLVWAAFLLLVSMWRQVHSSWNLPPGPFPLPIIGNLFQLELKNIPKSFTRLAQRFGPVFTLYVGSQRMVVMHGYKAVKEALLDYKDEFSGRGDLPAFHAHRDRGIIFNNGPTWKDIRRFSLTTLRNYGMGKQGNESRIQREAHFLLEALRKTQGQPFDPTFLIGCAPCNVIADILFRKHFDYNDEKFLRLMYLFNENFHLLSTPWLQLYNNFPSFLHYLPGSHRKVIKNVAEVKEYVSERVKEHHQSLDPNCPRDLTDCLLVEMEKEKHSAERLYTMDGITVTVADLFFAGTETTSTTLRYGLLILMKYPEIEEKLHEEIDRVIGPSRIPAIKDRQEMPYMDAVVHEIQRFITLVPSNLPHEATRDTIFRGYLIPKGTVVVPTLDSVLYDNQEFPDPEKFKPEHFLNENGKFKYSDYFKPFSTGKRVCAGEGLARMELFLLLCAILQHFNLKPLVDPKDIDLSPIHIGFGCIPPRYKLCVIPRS
Sequence of Cytochrome P450 2E1 (CYP2E1) (Rattus norvegicus, UniProt P05182) (P05182 whole entry): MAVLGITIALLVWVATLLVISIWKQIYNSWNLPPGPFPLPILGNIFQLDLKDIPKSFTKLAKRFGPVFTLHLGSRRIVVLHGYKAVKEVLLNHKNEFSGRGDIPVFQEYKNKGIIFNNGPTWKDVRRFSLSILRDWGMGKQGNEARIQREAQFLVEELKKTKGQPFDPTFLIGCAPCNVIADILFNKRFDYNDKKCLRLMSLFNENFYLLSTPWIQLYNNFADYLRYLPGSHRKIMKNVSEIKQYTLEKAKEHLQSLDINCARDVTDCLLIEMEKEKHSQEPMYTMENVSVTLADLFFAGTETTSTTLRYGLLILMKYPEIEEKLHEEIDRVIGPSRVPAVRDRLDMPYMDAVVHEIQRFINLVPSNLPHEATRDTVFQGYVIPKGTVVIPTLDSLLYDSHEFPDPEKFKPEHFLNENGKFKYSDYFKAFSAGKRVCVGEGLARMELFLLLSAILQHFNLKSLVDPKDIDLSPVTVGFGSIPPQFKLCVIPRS

Compound: CC(=O)Nc1ccc(O)cc1 [APAP, N-acetyl-para-aminophenol, reference compound]
- ALT [1, 6]: 368±71 IU/L
- AST [1, 6]: 499±112 IU/L
- Total HAI-score ([2]; APAP alone, single oral dose 1000 mg/kg, mean ± SD): 4.9 ± 1.8

- CYP 2E1 inhibition ratio [3, 7]: 3.9 ± 2.7%
- CYP 2E1 inhibition ratio [3, 8]: 7.1 ± 2.3%
- CYP 2E1 inhibition ratio [3, 9]: 14.5 ± 1.9%
Compound: CC1=CC(=O)NS(=O)(=O)O1 [Acesulfame potassium]

- CYP 2E1 inhibition ratio [3, 10]: 8.2 ± 2.0%
- CYP 2E1 inhibition ratio [3, 11]: 6.7 ± 1.0%
- CYP 2E1 inhibition ratio [3, 12]: −10.3 ± 6.3%
Compound: OCc1ccccc1 [Benzyl alcohol]

Compound: O=C(O)CC(O)(CC(=O)O)C(=O)O [Citric acid]
- CYP 2E1 inhibition ratio [3, 7]: 7.5 ± 2.3%
- CYP 2E1 inhibition ratio [3, 8]: 12.4 ± 2.2%
- CYP 2E1 inhibition ratio [3, 9]: 27.6 ± 3.6%
- CYP 2E1 inhibition ratio [4, 13]: 9.9 ± 3.1%
- CYP 2E1 inhibition ratio [4, 14]: 15.5 ± 1.5%
- CYP 2E1 inhibition ratio [4, 15]: 20.5 ± 1.8%

- CYP 2E1 inhibition ratio ([3]; rat liver microsomes, test concentration 10 μM): 8.6 ± 1.1%
- CYP 2E1 inhibition ratio ([3]; rat liver microsomes, test concentration 50 μM): 50.4 ± 1.1%
- CYP 2E1 inhibition ratio ([3]; rat liver microsomes, test concentration 100 μM): 89.2% and 89.2 ± 2.2%
- CYP 2E1 inhibition ratio ([4]; human, microsomes, 30 min, 10 μM, pH 7.4): 7.3 ± 1.0%
- CYP 2E1 inhibition ratio ([4]; human, microsomes, 30 min, 50 μM, pH 7.4): 49.8 ± 2.9%
- CYP 2E1 inhibition ratio ([4]; human, microsomes, 30 min, 100 μM, pH 7.4): 89.6 ± 0.9%
Compound: CCN(CC)C(=S)S [DDTC, Diethyldithiocarbamic acid, reference compound]

Compound: O.O.O=P([O-])([O-])O.[Ca+2] [Dicalcium phosphate dihydrate]
- improvement of APAP liver damage (AST, ALT, GSP and Total HAI-score, in words) [1]: not as expected
- ALT [1, 16]: 196 ± 65 IU/L
- AST [1, 16]: 315 ± 42 IU/L
- CYP 2E1 inhibition ratio [3, 7]: 55.0 ± 4.6%
- CYP 2E1 inhibition ratio [3, 8]: 62.0 ± 2.6%
- CYP 2E1 inhibition ratio [3, 9]: 76.7 ± 0.8%
- Total HAI-score [2, 16]: 3.1 ± 1.1
- liver tissue sections, hepatocyte morphology (in words) ([2]; single oral dose): except for the dicalcium phosphate group
- GSP ([5]; phosphate dihydrate): 444 ± 60 mg/L
- CYP 2E1 inhibition ratio [4, 13]: 31.2 ± 2.9%
- CYP 2E1 inhibition ratio [4, 14]: 56.8 ± 2.2%
- CYP 2E1 inhibition ratio [4, 15]: 60.1 ± 0.3%

- CYP 2E1 inhibition ratio [3, 17]: 3.1 ± 0.2%
- CYP 2E1 inhibition ratio [3, 18]: 3.1 ± 2.5%
- CYP 2E1 inhibition ratio [3, 19]: 8.2 ± 2.0%
Compound: CCCCCCCCCCCCCCCCCCCCCC(=O)OCC(O)CO (stereo not drawn) [Glyceryl behenate]

- CYP 2E1 inhibition ratio [3, 17]: 3.9 ± 2.3%
- CYP 2E1 inhibition ratio [3, 18]: 7.8 ± 2.2%
- CYP 2E1 inhibition ratio [3, 19]: 8.7 ± 3.8%
Compound: O.OC[C@H]1O[C@@H](O[C@H]2[C@H](O)[C@@H](O)C(O)O[C@@H]2CO)[C@H](O)[C@@H](O)[C@H]1O (stereo partly drawn) [Lactose monohydrate]

Compound: OC[C@@H](O)[C@@H](O)[C@H](O)[C@H](O)CO [Mannitol]
- improvement of APAP liver damage (AST, ALT, GSP and Total HAI-score, in words) [1]: significant decrease
- ALT [1, 16]: 79 ± 34 IU/L
- AST [1, 16]: 201 ± 30 IU/L
- CYP 2E1 inhibition ratio [3, 17]: 40.9 ± 2.8%
- CYP 2E1 inhibition ratio [3, 18]: 51.0 ± 2.7%
- CYP 2E1 inhibition ratio [3, 19]: 60.6 ± 3.3%
- Total HAI-score [2, 16]: 0.8 ± 0.3
- liver tissue sections, hepatocyte morphology (in words) ([2]; single oral dose): more intact around the central vein and have a apparent nucleus with less vacuolization; also recorded: hepatocytes are relatively intact with visible nucleus and less vacuolization
- GSP [5]: 253 ± 29 mg/L
- CYP 2E1 inhibition ratio [4, 20]: 44.8 ± 1.8%
- CYP 2E1 inhibition ratio [4, 21]: 51.2 ± 2.1%
- CYP 2E1 inhibition ratio [4, 22]: 54.5 ± 4.2%

- CYP 2E1 inhibition ratio [3, 7]: 7.2 ± 2.9%
- CYP 2E1 inhibition ratio [3, 8]: 15.3 ± 7.9%
- CYP 2E1 inhibition ratio [3, 9]: 36.4 ± 0.3%
- CYP 2E1 inhibition ratio [4, 13]: 10.5 ± 0.4%
- CYP 2E1 inhibition ratio [4, 14]: 20.8 ± 2.1%
- CYP 2E1 inhibition ratio [4, 15]: 30.8 ± 0.3%
Compound: CC1CCC(C(C)C)C(O)C1 (stereo not drawn) [Menthol]
- improvement of APAP liver damage (AST, ALT, GSP and Total HAI-score, in words) [1]: significant decrease
- ALT [1, 16]: 109 ± 23 IU/L
- AST [1, 16]: 187 ± 21 IU/L
- Total HAI-score [2, 16]: 11 ± 1.2
- liver tissue sections, hepatocyte morphology (in words) ([2]; single oral dose): more intact around the central vein and have a apparent nucleus with less vacuolization; also recorded: hepatocytes are relatively intact with visible nucleus and less vacuolization
- GSP [5]: 289 ± 20 mg/L

- CYP 2E1 inhibition ratio [3, 17]: 4.6 ± 3.2%
- CYP 2E1 inhibition ratio [3, 18]: −14.6 ± 4.1%
- CYP 2E1 inhibition ratio [3, 19]: −21.5 ± 2.0%
Compound: COC(=O)c1ccc(O)cc1 [Methylparaben]

- CYP 2E1 inhibition ratio [3, 17]: −4.1 ± 1.2%
- CYP 2E1 inhibition ratio [3, 18]: −17.2 ± 2.4%
- CYP 2E1 inhibition ratio [3, 19]: −27.3 ± 3.7%
Compound: CCCOC(=O)c1ccc(O)cc1 [Propylparaben]

- CYP 2E1 inhibition ratio [3, 7]: 35.3 ± 2.0%
- CYP 2E1 inhibition ratio [3, 8]: 59.6 ± 3.3%
- CYP 2E1 inhibition ratio [3, 9]: 67.4 ± 3.9%
- CYP 2E1 inhibition ratio [4, 13]: 29.4 ± 2.7%
- CYP 2E1 inhibition ratio [4, 14]: 51.2 ± 0.9%
- CYP 2E1 inhibition ratio [4, 15]: 78.5 ± 2.1%
Compound: O=C1NS(=O)(=O)c2ccccc21 [Saccharin]

Compound: O=C([O-])c1ccccc1.[Na+] [Sodium benzoate]
- CYP 2E1 inhibition ratio [3, 7]: 7.1 ± 2.0%
- CYP 2E1 inhibition ratio [3, 8]: 7.8 ± 4.1%
- CYP 2E1 inhibition ratio [3, 9]: 15.8 ± 0.9%

Compound: CCCCCCCCCCCCOS(=O)(=O)[O-].[Na+] [Sodium lauryl sulfate]
- CYP 2E1 inhibition ratio [3, 7]: 4.6 ± 1.1%
- CYP 2E1 inhibition ratio [3, 8]: 6.4 ± 0.9%
- CYP 2E1 inhibition ratio [3, 9]: 4.8 ± 1.2%

- CYP 2E1 inhibition ratio [3, 7]: 12.1 ± 5.7%
- CYP 2E1 inhibition ratio [3, 8]: 13.2 ± 4.4%
- CYP 2E1 inhibition ratio [3, 9]: 19.0 ± 5.6%
- CYP 2E1 inhibition ratio [4, 13]: 8.4 ± 1.6%
- CYP 2E1 inhibition ratio [4, 14]: 10.9 ± 2.7%
- CYP 2E1 inhibition ratio [4, 15]: 14.8 ± 0.1%
Compound: C/C=C/C=C/C(=O)O [Sorbic acid]

- CYP 2E1 inhibition ratio [3, 10]: 6.4 ± 0.5%
- CYP 2E1 inhibition ratio [3, 11]: 5.6 ± 0.5%
- CYP 2E1 inhibition ratio [3, 12]: 16.1 ± 0.7%
Compound: OC[C@@H](O)[C@@H](O)[C@H](O)[C@@H](O)CO [Sorbitol]

- CYP 2E1 inhibition ratio [3, 17]: 41.1 ± 2.7%
- CYP 2E1 inhibition ratio [3, 18]: 46.8 ± 0.8%
- CYP 2E1 inhibition ratio [3, 19]: 54.0 ± 4.2%
- CYP 2E1 inhibition ratio [4, 20]: 37.1 ± 2.8%
- CYP 2E1 inhibition ratio [4, 21]: 45.8 ± 4.0%
- CYP 2E1 inhibition ratio [4, 22]: 55.8 ± 2.0%
Compound: OC[C@H]1O[C@H](O[C@]2(CCl)O[C@H](CCl)[C@@H](O)[C@@H]2O)[C@H](O)[C@@H](O)[C@H]1Cl [Sucralose]
- improvement of APAP liver damage (AST, ALT, GSP and Total HAI-score, in words) [1]: significant decrease
- ALT [1, 16]: 83 ± 23 IU/L
- AST [1, 16]: 199 ± 24 IU/L
- Total HAI-score [2, 16]: 0.6 ± 0.4
- liver tissue sections, hepatocyte morphology (in words) ([2]; single oral dose): most similar to the liver tissue sections of normal rats; also recorded: hepatocytes are relatively intact with visible nucleus and less vacuolization
- GSP [5]: 218 ± 31 mg/L

Compound: Magnesium stearate
- CYP 2E1 inhibition ratio [3, 7]: 2.0 ± 1.0%
- CYP 2E1 inhibition ratio [3, 8]: 3.0 ± 0.7%
- CYP 2E1 inhibition ratio [3, 9]: 5.0 ± 1.6%
